{
  "source": "paper PMC5218480",
  "about": "(PLoS ONE, 2017)",
  "system": "MV-4-11 cells",
  "assay": "Gene expression microarray analysis (Affymetrix PrimeView) and GSEA",
  "type": "cell-based, human",
  "set-up": "RFU PODN (11730768_x_at) / Fold change /veh PODN (11730768_x_at) / RFU LINC00158 (11744669_a_at) / Fold change /veh LINC00158 (11744669_a_at) / RFU DUSP10 (11751237_a_at) / Fold change /veh DUSP10 (11751237_a_at) / RFU ID3 (11757404_x_at) / Fold change /veh ID3 (11757404_x_at) / RFU PLEKHG5 (11737974_s_at) / Fold change /veh PLEKHG5 (11737974_s_at) / RFU LRRC4B (11730491_at) / Fold change /veh LRRC4B (11730491_at) / RFU GIMAP4 (11747438_a_at) / Fold change /veh GIMAP4 (11747438_a_at) / RFU KRT8 (11758183_x_at) / Fold change /veh KRT8 (11758183_x_at) / RFU CNN1 (11734310_a_at) / Fold change /veh CNN1 (11734310_a_at) / RFU VPS37D (11726825_at) / Fold change /veh VPS37D (11726825_at) / RFU C10orf10 (11716522_x_at) / Fold change /veh C10orf10 (11716522_x_at) / RFU KIR2DL2 /// KIR2DL4 /// KIR2DL5A /// KIR2DL5B /// KIR2DS1 /// KIR2DS2 /// KIR2DS3 /// KIR2DS4 /// KIR3DL3 /// KIR3DL3 /// KIR3DS1 (11738374_at) / Fold change /veh KIR2DL2 /// KIR2DL4 /// KIR2DL5A /// KIR2DL5B /// KIR2DS1 /// KIR2DS2 /// KIR2DS3 /// KIR2DS4 /// KIR3DL3 /// KIR3DL3 /// KIR3DS1 (11738374_at) / RFU C1QL1 (11718748_at) / Fold change /veh C1QL1 (11718748_at) / RFU TMPRSS4 (11747572_a_at) / Fold change /veh TMPRSS4 (11747572_a_at) / RFU HAMP (11756126_x_at) / Fold change /veh HAMP (11756126_x_at) / RFU RNFT2 (11725882_a_at) / Fold change /veh RNFT2 (11725882_a_at) / RFU NR4A2 (11747474_a_at) / Fold change /veh NR4A2 (11747474_a_at) / RFU ABCC12 (11746883_a_at) / Fold change /veh ABCC12 (11746883_a_at) / RFU TMEM136 (11760407_x_at) / Fold change /veh TMEM136 (11760407_x_at) / RFU CLDN22 /// WWC2 (11732394_at) / Fold change /veh CLDN22 /// WWC2 (11732394_at) / RFU HLA-DPB1 (11760878_x_at) / Fold change /veh HLA-DPB1 (11760878_x_at) / RFU SPINT1 (11716480_a_at) / Fold change /veh SPINT1 (11716480_a_at) / RFU GAP43 (11754022_s_at) / Fold change /veh GAP43 (11754022_s_at) / RFU A4GNT (11735810_at) / Fold change /veh A4GNT (11735810_at) / RFU PRB3 (11715151_x_at) / Fold change /veh PRB3 (11715151_x_at) / RFU TUBB4B (11761932_at) / Fold change /veh TUBB4B (11761932_at) / RFU CAPN14 (11732068_a_at) / Fold change /veh CAPN14 (11732068_a_at) / RFU TMCC2 (11721928_a_at) / Fold change /veh TMCC2 (11721928_a_at) / RFU IRGQ (11745062_a_at) / Fold change /veh IRGQ (11745062_a_at) / RFU FAM174B (11720279_a_at) / Fold change /veh FAM174B (11720279_a_at) / RFU TMPRSS4 (11748680_a_at) / Fold change /veh TMPRSS4 (11748680_a_at) / RFU FAM212B (11763350_a_at) / Fold change /veh FAM212B (11763350_a_at) / RFU PLEKHG5 (11743358_a_at) / Fold change /veh PLEKHG5 (11743358_a_at) / RFU ZSCAN30 (11745921_a_at) / Fold change /veh ZSCAN30 (11745921_a_at) / RFU CMKLR1 (11741424_a_at) / Fold change /veh CMKLR1 (11741424_a_at) / RFU LOC101060620 /// MAPK8IP1 (11723275_at) / Fold change /veh LOC101060620 /// MAPK8IP1 (11723275_at) / RFU SPTSSB (11747773_x_at) / Fold change /veh SPTSSB (11747773_x_at) / RFU PRSS12 (11739890_at) / Fold change /veh PRSS12 (11739890_at) / RFU BIN1 (11741810_x_at) / Fold change /veh BIN1 (11741810_x_at) / RFU WNT11 (11732464_a_at) / Fold change /veh WNT11 (11732464_a_at) / RFU C10orf10 (11716521_a_at) / Fold change /veh C10orf10 (11716521_a_at) / RFU C5orf56 (11738089_at) / Fold change /veh C5orf56 (11738089_at) / RFU CYB561 (11721691_x_at) / Fold change /veh CYB561 (11721691_x_at) / RFU ANKRD19P (11752326_a_at) / Fold change /veh ANKRD19P (11752326_a_at) / RFU OR2T12 /// OR2T33 /// OR2T8 (11738714_s_at) / Fold change /veh OR2T12 /// OR2T33 /// OR2T8 (11738714_s_at) / RFU VCAN (11748164_a_at) / Fold change /veh VCAN (11748164_a_at) / RFU JSRP1 (11732532_at) / Fold change /veh JSRP1 (11732532_at) / RFU KRTAP10-11 (11738290_x_at) / Fold change /veh KRTAP10-11 (11738290_x_at) / RFU MYO3A (11730013_a_at) / Fold change /veh MYO3A (11730013_a_at) / RFU EBF3 (11725865_a_at) / Fold change /veh EBF3 (11725865_a_at) / RFU CAMK2N1 (11719241_x_at) / Fold change /veh CAMK2N1 (11719241_x_at) / RFU C5orf56 (11738088_a_at) / Fold change /veh C5orf56 (11738088_a_at) / RFU OLFML3 (11715873_a_at) / Fold change /veh OLFML3 (11715873_a_at) / RFU LOC100653217 /// NTM (11731650_a_at) / Fold change /veh LOC100653217 /// NTM (11731650_a_at) / RFU MAPK11 (11762145_a_at) / Fold change /veh MAPK11 (11762145_a_at) / RFU FIZ1 (11724087_x_at) / Fold change /veh FIZ1 (11724087_x_at) / RFU OASL (11726364_x_at) / Fold change /veh OASL (11726364_x_at) / RFU SOX15 (11748057_x_at) / Fold change /veh SOX15 (11748057_x_at) / RFU CD79A (11719716_a_at) / Fold change /veh CD79A (11719716_a_at) / RFU HIST1H1D (11736915_at) / Fold change /veh HIST1H1D (11736915_at) / RFU CASKIN2 (11723855_a_at) / Fold change /veh CASKIN2 (11723855_a_at) / RFU LOC730098 (11760151_x_at) / Fold change /veh LOC730098 (11760151_x_at) / RFU OR4N2 (11742367_at) / Fold change /veh OR4N2 (11742367_at) / RFU PRRT2 (11749266_a_at) / Fold change /veh PRRT2 (11749266_a_at) / RFU SNX32 (11753110_a_at) / Fold change /veh SNX32 (11753110_a_at) / RFU CDHR5 (11726645_a_at) / Fold change /veh CDHR5 (11726645_a_at) / RFU RCAN1 (11760418_a_at) / Fold change /veh RCAN1 (11760418_a_at) / RFU FAM167A (11723789_a_at) / Fold change /veh FAM167A (11723789_a_at) / RFU FAM26E (11764081_at) / Fold change /veh FAM26E (11764081_at) / RFU ISYNA1 (11749810_s_at) / Fold change /veh ISYNA1 (11749810_s_at) / RFU ACY1 (11761880_at) / Fold change /veh ACY1 (11761880_at) / RFU 11764098_at / Fold change /veh 11764098_at / RFU SAMD14 (11745864_x_at) / Fold change /veh SAMD14 (11745864_x_at) / RFU NPB (11741838_a_at) / Fold change /veh NPB (11741838_a_at) / RFU TMPRSS6 (11731388_a_at) / Fold change /veh TMPRSS6 (11731388_a_at) / RFU KRTAP10-2 (11738614_at) / Fold change /veh KRTAP10-2 (11738614_at) / RFU ARHGAP8 /// PRR5-ARHGAP8 (11727945_x_at) / Fold change /veh ARHGAP8 /// PRR5-ARHGAP8 (11727945_x_at) / RFU KRTAP5-7 /// NADSYN1 (11734609_at) / Fold change /veh KRTAP5-7 /// NADSYN1 (11734609_at) / RFU RASL12 (11751679_a_at) / Fold change /veh RASL12 (11751679_a_at) / RFU CDKN2B (11736163_a_at) / Fold change /veh CDKN2B (11736163_a_at) / RFU PRF1 (11729649_at) / Fold change /veh PRF1 (11729649_at) / RFU, ZNF638 /// ZNF638-IT1 / Fold change vs veh, ZNF638 /// ZNF638-IT1 / RFU, PANK3 / Fold change vs veh, PANK3 / RFU, SH3YL1 / Fold change vs veh, SH3YL1 / RFU, ZEB2 / Fold change vs veh, ZEB2 / RFU, NRIP1 / Fold change vs veh, NRIP1 / RFU, PTTG1IP / Fold change vs veh, PTTG1IP / RFU, CAPN2 / Fold change vs veh, CAPN2 / RFU, MED14 / Fold change vs veh, MED14 / RFU, SNORA58 / Fold change vs veh, SNORA58 / RFU, C1orf63 / Fold change vs veh, C1orf63 / RFU, LRRFIP1 / Fold change vs veh, LRRFIP1 / RFU, NDUFAF7 / Fold change vs veh, NDUFAF7 / RFU, SLC12A2 / Fold change vs veh, SLC12A2 / RFU, IBTK / Fold change vs veh, IBTK / RFU, ESF1 / Fold change vs veh, ESF1 / Fold change vs veh, TMEM50B / RFU, TAOK1 / Fold change vs veh, TAOK1 / RFU, ACBD3 / Fold change vs veh, ACBD3 / RFU, TMA16 / Fold change vs veh, TMA16 / RFU, RWDD3 / Fold change vs veh, RWDD3 / RFU, BCAT1 / Fold change vs veh, BCAT1 / RFU, EDEM3 / Fold change vs veh, EDEM3 / RFU, TMEM33 / Fold change vs veh, TMEM33 / RFU, WDR75 / Fold change vs veh, WDR75 / RFU, AHCTF1 / Fold change vs veh, AHCTF1 / RFU, TFRC / Fold change vs veh, TFRC / RFU, ZDHHC17 / Fold change vs veh, ZDHHC17 / RFU, NOM1 / Fold change vs veh, NOM1 / RFU, ARL8B / Fold change vs veh, ARL8B / RFU, ZBTB11 / Fold change vs veh, ZBTB11 / RFU, TAMM41 / Fold change vs veh, TAMM41 / RFU, KIAA1704 /// LOC100996395 / Fold change vs veh, KIAA1704 /// LOC100996395 / RFU, ING1 / Fold change vs veh, ING1 / RFU, TRMT61B / Fold change vs veh, TRMT61B / RFU, FUBP3 / Fold change vs veh, FUBP3 / RFU, TP53 / Fold change vs veh, TP53 / RFU, TNKS2 / Fold change vs veh, TNKS2 / RFU, ZFP14 / Fold change vs veh, ZFP14 / RFU, ACTR2 / Fold change vs veh, ACTR2 / RFU, PPP3R1 / Fold change vs veh, PPP3R1 / RFU, PIK3R1 / Fold change vs veh, PIK3R1 / RFU, HNRNPA1 / Fold change vs veh, HNRNPA1 / RFU, RNF170 / Fold change vs veh, RNF170 / RFU, ZNF28 / Fold change vs veh, ZNF28 / RFU, RNGTT / Fold change vs veh, RNGTT / RFU, OGT / Fold change vs veh, OGT / RFU, BRD1 / Fold change vs veh, BRD1 / RFU, MARS / Fold change vs veh, MARS / RFU, ZNF655 / Fold change vs veh, ZNF655 / RFU, FAHD1 / Fold change vs veh, FAHD1 / RFU, BDP1 / Fold change vs veh, BDP1 / RFU, LRRCC1 / Fold change vs veh, LRRCC1 / RFU, ARID1A / Fold change vs veh, ARID1A / RFU, ZNF146 / Fold change vs veh, ZNF146 / RFU, ZNF330 / Fold change vs veh, ZNF330 / RFU, GPN3 / Fold change vs veh, GPN3 / RFU, C9orf123 / Fold change vs veh, C9orf123 / RFU, N4BP2L2 / Fold change vs veh, N4BP2L2 / RFU, ARFIP1 / Fold change vs veh, ARFIP1 / RFU, FAM179B / Fold change vs veh, FAM179B / RFU, BCL10 / Fold change vs veh, BCL10 / RFU, UHRF1BP1L / Fold change vs veh, UHRF1BP1L / RFU, BET1 / Fold change vs veh, BET1 / RFU, CNOT2 / Fold change vs veh, CNOT2 / RFU, ZNF268 / Fold change vs veh, ZNF268 / Fold change vs veh, ZNF507 / RFU, DGCR2 / Fold change vs veh, DGCR2 / RFU, WDSUB1 / Fold change vs veh, WDSUB1 / Fold change vs veh, HSP90B1 /// MIR3652 / RFU, ADSS / Fold change vs veh, ADSS / RFU, GK / Fold change vs veh, GK / RFU, ZNF148 / Fold change vs veh, ZNF148 / RFU, TAF9 / Fold change vs veh, TAF9 / RFU, SLC1A5 / Fold change vs veh, SLC1A5 / RFU, SLMO2 / Fold change vs veh, SLMO2 / RFU, ABCC4 / Fold change vs veh, ABCC4 / RFU, LOC101060439 /// RAP1B / Fold change vs veh, LOC101060439 /// RAP1B / RFU, RFX7 / Fold change vs veh, RFX7 / RFU, GTPBP10 / Fold change vs veh, GTPBP10 / RFU, CNEP1R1 / Fold change vs veh, CNEP1R1 / RFU, BIVM-ERCC5 /// ERCC5 / Fold change vs veh, BIVM-ERCC5 /// ERCC5 / RFU, ILF3 / Fold change vs veh, ILF3 / RFU 11762660_at / Fold change /veh 11762660_at / RFU VCAN (11757783_s_at) / Fold change /veh VCAN (11757783_s_at) / RFU DDX43 (11728927_at) / Fold change /veh DDX43 (11728927_at) / RFU KRT8 (11758188_x_at) / Fold change /veh KRT8 (11758188_x_at) / RFU NKD1 (11759106_at) / Fold change /veh NKD1 (11759106_at) / RFU SRD5A1 (11742802_a_at) / Fold change /veh SRD5A1 (11742802_a_at) / RFU TPSAB1 /// TPSB2 (11721975_s_at) / Fold change /veh TPSAB1 /// TPSB2 (11721975_s_at) / RFU GSTM3 (11746129_a_at) / Fold change /veh GSTM3 (11746129_a_at) / RFU IL23R (11737362_x_at) / Fold change /veh IL23R (11737362_x_at) / RFU TMEM51 (11727254_a_at) / Fold change /veh TMEM51 (11727254_a_at) / RFU PIWIL2 (11732686_x_at) / Fold change /veh PIWIL2 (11732686_x_at) / RFU ORM1 (11744905_x_at) / Fold change /veh ORM1 (11744905_x_at) / RFU CCDC152 (11743942_at) / Fold change /veh CCDC152 (11743942_at) / RFU ECM1 (11717891_a_at) / Fold change /veh ECM1 (11717891_a_at) / RFU IL23R (11748794_a_at) / Fold change /veh IL23R (11748794_a_at) / RFU TNFAIP8L3 (11732012_x_at) / Fold change /veh TNFAIP8L3 (11732012_x_at) / RFU MBOAT4 (11741988_at) / Fold change /veh MBOAT4 (11741988_at) / RFU 11764193_at / Fold change /veh 11764193_at / RFU TMEM53 (11763286_at) / Fold change /veh TMEM53 (11763286_at) / RFU MAGEB2 (11727129_at) / Fold change /veh MAGEB2 (11727129_at) / RFU TMEM200A (11744735_a_at) / Fold change /veh TMEM200A (11744735_a_at) / RFU CCDC152 (11751479_a_at) / Fold change /veh CCDC152 (11751479_a_at) / RFU FAM211A (11726209_a_at) / Fold change /veh FAM211A (11726209_a_at) / RFU RGS16 (11746705_a_at) / Fold change /veh RGS16 (11746705_a_at) / RFU VCAN (11755009_s_at) / Fold change /veh VCAN (11755009_s_at) / RFU RHOB (11743442_s_at) / Fold change /veh RHOB (11743442_s_at) / RFU RGS16 (11720943_a_at) / Fold change /veh RGS16 (11720943_a_at) / RFU RGS16 (11720944_at) / Fold change /veh RGS16 (11720944_at) / RFU, VPS4B / Fold change vs veh, VPS4B / RFU, CREB1 / Fold change vs veh, CREB1 / RFU, DNAJC13 / Fold change vs veh, DNAJC13 / RFU, GNAQ / Fold change vs veh, GNAQ / RFU, CDK5R1 / Fold change vs veh, CDK5R1 / RFU, ZRANB3 / Fold change vs veh, ZRANB3 / RFU, CUL4A / Fold change vs veh, CUL4A / RFU, CCNY / Fold change vs veh, CCNY / RFU, UFL1 / Fold change vs veh, UFL1 / RFU, COG3 / Fold change vs veh, COG3 / RFU, DIAPH2 / Fold change vs veh, DIAPH2 / RFU, SKA2 / Fold change vs veh, SKA2 / RFU, AFF3 / Fold change vs veh, AFF3 / RFU, LMF1 / Fold change vs veh, LMF1 / RFU, IPO11 / Fold change vs veh, IPO11 / RFU, DFFB / Fold change vs veh, DFFB / RFU, FOXP1 / Fold change vs veh, FOXP1 / RFU, CARD8 / Fold change vs veh, CARD8 / RFU, STRN3 / Fold change vs veh, STRN3 / RFU, ADK / Fold change vs veh, ADK / RFU, RASSF2 / Fold change vs veh, RASSF2 / RFU, WIPF1 / Fold change vs veh, WIPF1 / RFU, LARP1B / Fold change vs veh, LARP1B / RFU, RASA1 / Fold change vs veh, RASA1 / RFU, RB1 / Fold change vs veh, RB1 / RFU, PPFIA1 / Fold change vs veh, PPFIA1 / RFU, MAT2A / Fold change vs veh, MAT2A / RFU, CCT5 / Fold change vs veh, CCT5 / RFU, WDR92 / Fold change vs veh, WDR92 / RFU, CUX1 / Fold change vs veh, CUX1 / RFU, TTC7A / Fold change vs veh, TTC7A / RFU, TMEM135 / Fold change vs veh, TMEM135 / RFU, DEPTOR / Fold change vs veh, DEPTOR / RFU, CPM / Fold change vs veh, CPM / RFU, DNAJB6 / Fold change vs veh, DNAJB6 / RFU, CACNA2D3 / Fold change vs veh, CACNA2D3 / RFU, DTX4 / Fold change vs veh, DTX4 / RFU, TFCP2 / Fold change vs veh, TFCP2 / RFU, GMCL1 /// GMCL1P1 / Fold change vs veh, GMCL1 /// GMCL1P1 / RFU, AEBP2 / Fold change vs veh, AEBP2 / RFU, SNHG1 /// SNORD22 /// SNORD25 /// SNORD26 /// SNORD27 /// SNORD28 /// SNORD29 /// SNORD31 / Fold change vs veh, SNHG1 /// SNORD22 /// SNORD25 /// SNORD26 /// SNORD27 /// SNORD28 /// SNORD29 /// SNORD31 / Fold change (Aza/veh), C12orf56 (ProbeSet 11735607_a_at) / Fold change (ACY-1035/veh), C12orf56 (ProbeSet 11735607_a_at) / Fold change (Aza/veh), FGFR1OP (ProbeSet 11751329_s_at) / Fold change (ACY-1035/veh), FGFR1OP (ProbeSet 11751329_s_at) / Fold change (Aza/veh), VPS36 (ProbeSet 11739960_a_at) / Fold change (ACY-1035/veh), VPS36 (ProbeSet 11739960_a_at) / RFU SYPL1 (11715823_x_at) / Fold change /veh SYPL1 (11715823_x_at) / RFU IGFBP7 (11715501_s_at) / Fold change /veh IGFBP7 (11715501_s_at) / RFU REEP3 (11722064_at) / Fold change /veh REEP3 (11722064_at) / RFU IGLL1 (11728026_x_at) / Fold change /veh IGLL1 (11728026_x_at): dose or concentration left out as unconfirmed",
  "details": "MV-4-11 cells, 48 hours",
  "data": [
    {"smiles": "Nc1ccc(-c2cccs2)cc1NC(=O)c1ccc2c(c1)cc(C1CC1)n2CCN1CCOCC1", "note": "[ACY-1035]", "values": [
      {"measurement": "RFU VCAN (11755009_s_at)", "value": 8.96, "unit": "RFU"}
    ]}
  ]
}
